Where a name gives a salt, the structure may show the parent alone. Read-outs that look alike come from different tables or passages of the source.
Experiments:
[1] = HCQ sulfate solubility in liquid glycerol formulations, HPLC assay for HCQ; type: physicochemical; settings: dissolution protocol of Example 1
Protocol: Liquid HCQ formulations. […] Step 1: 63 g of glycerol were weighed and transferred into a 50 ml beaker with magnetic stir bar and heated to 70° C. while stirred. Step 2: 10 g HCQ sulfate were weighed and slowly added to the 70° C. glycerol of Step 1 with continued stirring and with maintenance of 70° C. until a clear liquid solution was formed. Step 3: 10 g HCQ sulfate was weighed and slowly added to resultant clear liquid solution of Step 3 with continued stirring and with maintenance of 70° C. until a clear liquid solution was formed. Step 4: the resultant clear liquid solution of Step 4 was cooled to room temperature.
HPLC steps. Step 1. […] The chromatogram was recorded and used to identify any peak eluting at the retention time of major peaks. […] The chromatogram was recorded and used to identify the HCQ peak and calculate its signal to noise ratio. […] The chromatogram was recorded and used to identify HCQ and HCQ-n-oxide peaks and the resolution between those peaks was calculated. […] The chromatograms were recorded and used to calculate the average and % RSD for the HCQ peak area responses obtained from the six replicate injections of standard solution. The tailing factor was determined. […] The chromatograms were recorded and used to calculate average peak area responses of the HCQ obtained from the two replicate injections of standard check solution. The similarity factor was calculated. […]

[2] = cited from earlier work

CCN(CCO)CCCC(C)Nc1ccnc2cc(Cl)ccc12 (centres unmarked) [HCQ, 2-[[4-[(7-Chloro-4-quinolyl)amino]pentyl]ethylamino] ethanol sulfate (1:1)]
HCQ dissolved in glycerol [1]: 273 mg/mL
Solubility, Inference as USP ([2]; solvent Alcohol): Practically insoluble or slightly soluble
Solubility, Inference as USP ([2]; solvent Chloroform): Practically insoluble or slightly soluble
Solubility, Inference as USP ([2]; solvent Dimethylformamide): Sparingly soluble (10-33)
Solubility, Inference as USP ([2]; solvent Dimethylsulfoxide): Insoluble or sparingly soluble
Solubility, Inference as USP ([2]; solvent Ethanol): Sparingly soluble or insoluble
Solubility, Inference as USP ([2]; solvent Ether): Practically insoluble or very slightly soluble
Solubility, Inference as USP ([2]; solvent Glycerol): Very slightly soluble (0.1-1)
